From ChEMBL document CHEMBL1201861, “Genomics of Drug Sensitity in Cancer screening data, Wellcome Trust Sanger Institute”

Experiments:
Experiment in all cases: cells
[1] = system: A101D; assay type: functional, cell-based, Homo sapiens; conditions: Homo sapiens, A101D;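 further: growth inhibition of the cell line, measured with a viability assay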
Description: SANGER: Inhibition of human A101D cell growth in a cell viability assay.

[2] = system: RH-1; assay type: functional, cell-based, Homo sapiens; conditions: Homo sapiens, RH-1;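 further: growth inhibition of human RH-1 cells, read out with a cell viability assay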
Description: SANGER: Inhibition of human RH-1 cell growth in a cell viability assay.

[3] = system: COLO-824; assay type: functional, cell-based, Homo sapiens; conditions: Homo sapiens, COLO-824
Description: SANGER: Inhibition of human COLO-824 cell growth in a cell viability assay.

[4] = system: KINGS-1; assay type: functional, cell-based, Homo sapiens; conditions: Homo sapiens, KINGS-1;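 further: cell viability assay measuring suppression of KINGS-1 cell growth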
Description: SANGER: Inhibition of human KINGS-1 cell growth in a cell viability assay.

[5] = system: GR-ST; assay type: functional, cell-based, Homo sapiens; conditions: Homo sapiens, GR-ST
Description: SANGER: Inhibition of human GR-ST cell growth in a cell viability assay.

[6] = system: EM-2; assay type: functional, cell-based, Homo sapiens; conditions: Homo sapiens, EM-2;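 further: growth inhibition of EM-2 cells, read out with a cell viability assay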
Description: SANGER: Inhibition of human EM-2 cell growth in a cell viability assay.

[7] = system: no-11; assay type: functional, cell-based, Homo sapiens; conditions: Homo sapiens;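 further: growth inhibition of human NO-11 cells, read out with a cell viability assay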
Description: SANGER: Inhibition of human no-11 cell growth in a cell viability assay.

[8] = system: GOTO; assay type: functional, cell-based, Homo sapiens; conditions: Homo sapiens, GOTO;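 further: growth inhibition of GOTO cells, read out by a cell viability assay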
Description: SANGER: Inhibition of human GOTO cell growth in a cell viability assay.

[9] = system: UACC-257; assay type: functional, cell-based, Homo sapiens; conditions: Homo sapiens, UACC-257
Description: SANGER: Inhibition of human UACC-257 cell growth in a cell viability assay.

[10] = system: DOHH-2; assay type: functional, cell-based, Homo sapiens; conditions: Homo sapiens, DOHH-2;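 further: growth inhibition of human DOHH-2 cells, read out with a cell viability assay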
Description: SANGER: Inhibition of human DOHH-2 cell growth in a cell viability assay.

[11] = system: COLO-800; assay type: functional, cell-based, Homo sapiens; conditions: Homo sapiens, COLO-800;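 further: growth inhibition of COLO-800 cells, read out with a cell viability assay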
Description: SANGER: Inhibition of human COLO-800 cell growth in a cell viability assay.

[12] = system: TE-6; assay type: functional, cell-based, Homo sapiens; conditions: Homo sapiens, TE-6;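 further: growth inhibition of TE-6 cells, read out with a cell viability assay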
Description: SANGER: Inhibition of human TE-6 cell growth in a cell viability assay.

[13] = system: ONS-76; assay type: functional, cell-based, Homo sapiens; conditions: Homo sapiens, ONS-76;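 further: growth inhibition of human ONS-76 cells, read out with a cell viability assay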
Description: SANGER: Inhibition of human ONS-76 cell growth in a cell viability assay.

[14] = system: NCI-H1581; assay type: functional, cell-based, Homo sapiens; conditions: Homo sapiens, NCI-H1581;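 further: cell growth inhibition read out by a viability assay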
Description: SANGER: Inhibition of human NCI-H1581 cell growth in a cell viability assay.

[15] = system: NCI-H1299; assay type: functional, cell-based; conditions: Homo sapiens;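 further: growth inhibition of human NCI-H1299 cells, read out by a cell viability assay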
Description: SANGER: Inhibition of human NCI-H1299 cell growth in a cell viability assay.

[16] = system: TE-9; assay type: functional, cell-based, Homo sapiens; conditions: Homo sapiens, TE-9;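 further: cell growth inhibition, measured with a cell viability readout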
Description: SANGER: Inhibition of human TE-9 cell growth in a cell viability assay.

[17] = system: TGW; assay type: functional, cell-based, Homo sapiens; conditions: Homo sapiens, TGW;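 further: growth inhibition of human TGW cells, read out with a cell viability assay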
Description: SANGER: Inhibition of human TGW cell growth in a cell viability assay.

[18] = system: MSTO-211H; assay type: functional, cell-based, Homo sapiens; conditions: Homo sapiens, MSTO-211H
Description: SANGER: Inhibition of human MSTO-211H cell growth in a cell viability assay.

[19] = system: MOLT-16; assay type: functional, cell-based, Homo sapiens; conditions: Homo sapiens, MOLT-16;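 further: growth inhibition of human MOLT-16 cells, read out with a cell viability assay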
Description: SANGER: Inhibition of human MOLT-16 cell growth in a cell viability assay.

[20] = system: NH-12; assay type: functional, cell-based, Homo sapiens; conditions: Homo sapiens, NH-12;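 further: growth inhibition of NH-12 cells, read out with a cell viability assay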
Description: SANGER: Inhibition of human NH-12 cell growth in a cell viability assay.

[21] = system: SK-NEP-1; assay type: functional, cell-based, Homo sapiens; conditions: Homo sapiens, SK-NEP-1;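 further: growth inhibition of human SK-NEP-1 cells, read out by a cell viability assay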
Description: SANGER: Inhibition of human SK-NEP-1 cell growth in a cell viability assay.

[22] = system: CTB-1; assay type: functional, cell-based, Homo sapiens; conditions: Homo sapiens, CTB-1
Description: SANGER: Inhibition of human CTB-1 cell growth in a cell viability assay.

[23] = system: NB69; assay type: functional, cell-based, Homo sapiens; conditions: Homo sapiens, NB69;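 further: growth inhibition of NB69 cells, determined by a cell viability assay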
Description: SANGER: Inhibition of human NB69 cell growth in a cell viability assay.

[24] = system: HT; assay type: functional, cell-based, Homo sapiens; conditions: Homo sapiens, HT
Description: SANGER: Inhibition of human HT cell growth in a cell viability assay.

[25] = system: COLO-668; assay type: functional, cell-based, Homo sapiens; conditions: Homo sapiens, COLO-668
Description: SANGER: Inhibition of human COLO-668 cell growth in a cell viability assay.

[26] = system: TE-10; assay type: functional, cell-based, Homo sapiens; conditions: Homo sapiens, TE-10;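 further: growth inhibition of TE-10 cells, measured by a cell viability assay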
Description: SANGER: Inhibition of human TE-10 cell growth in a cell viability assay.

[27] = system: LB2518-MEL; assay type: functional, cell-based; conditions: Homo sapiens;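 further: growth inhibition of human LB2518-MEL cells, measured with a cell viability assay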
Description: SANGER: Inhibition of human LB2518-MEL cell growth in a cell viability assay.

[28] = system: KNS-81-FD; assay type: functional, cell-based, Homo sapiens; conditions: Homo sapiens, KNS-81-FD;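 further: growth inhibition of KNS-81-FD cells, read out with a cell viability assay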
Description: SANGER: Inhibition of human KNS-81-FD cell growth in a cell viability assay.

[29] = system: NB6; assay type: functional, cell-based, Homo sapiens; conditions: Homo sapiens, NB6;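 further: growth inhibition of NB6 cells, read out by a cell viability assay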
Description: SANGER: Inhibition of human NB6 cell growth in a cell viability assay.

[30] = system: NTERA-2-cl-D1; assay type: functional, cell-based, Homo sapiens; conditions: Homo sapiens, NTERA-2-cl-D1;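 further: inhibition of cell growth, measured with a cell viability assay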
Description: SANGER: Inhibition of human NTERA-S-cl-D1 cell growth in a cell viability assay.

[31] = system: BV-173; assay type: functional, cell-based, Homo sapiens; conditions: Homo sapiens, BV-173
Description: SANGER: Inhibition of human BV-173 cell growth in a cell viability assay.

[32] = system: K5; assay type: functional, cell-based, Homo sapiens; conditions: Homo sapiens, K5
Description: SANGER: Inhibition of human K5 cell growth in a cell viability assay.

[33] = system: EW-1; assay type: functional, cell-based, Homo sapiens; conditions: Homo sapiens, EW-1;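 further: growth inhibition of the human EW-1 cell line, read out by a cell viability assay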
Description: SANGER: Inhibition of human EW-1 cell growth in a cell viability assay.

[34] = system: NCI-H1838; assay type: functional, cell-based, Homo sapiens; conditions: Homo sapiens, NCI-H1838;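 further: growth inhibition of NCI-H1838 cells, determined with a cell viability readout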
Description: SANGER: Inhibition of human NCI-H1838 cell growth in a cell viability assay.

[35] = system: ML-2; assay type: functional, cell-based, Homo sapiens; conditions: Homo sapiens, ML-2;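 further: growth inhibition of ML-2 cells, measured with a cell viability readout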
Description: SANGER: Inhibition of human ML-2 cell growth in a cell viability assay.

[36] = system: SF-268; assay type: functional, cell-based, Homo sapiens; conditions: Homo sapiens, SF-268;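 further: growth inhibition of SF-268 cells determined with a cell viability assay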
Description: SANGER: Inhibition of human SF268 cell growth in a cell viability assay.

[37] = system: OCI-AML2; assay type: functional, cell-based, Homo sapiens; conditions: Homo sapiens, OCI-AML2;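 further: growth inhibition of OCI-AML2 cells, read out with a cell viability assay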
Description: SANGER: Inhibition of human OCI-AML2 cell growth in a cell viability assay.

[38] = system: IST-MES1; assay type: functional, cell-based, Homo sapiens; conditions: Homo sapiens, IST-MES1;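 further: growth inhibition of IST-MES1 cells, measured with a cell viability assay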
Description: SANGER: Inhibition of human IST-MES1 cell growth in a cell viability assay.

[39] = system: Ramos-2G6-4C10; assay type: functional, cell-based, Homo sapiens; conditions: Homo sapiens, Ramos-2G6-4C10;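 further: growth inhibition of the cell line, measured by a cell viability read-out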
Description: SANGER: Inhibition of human Ramos-2G6-4C10 cell growth in a cell viability assay.

[40] = system: MZ2-MEL; assay type: functional, cell-based, Homo sapiens; conditions: Homo sapiens, MZ2-MEL;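 further: growth inhibition of MZ2-MEL cells read out with a cell viability assay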
Description: SANGER: Inhibition of human MZ2-MEL cell growth in a cell viability assay.

[41] = system: NOS-1; assay type: functional, cell-based, Homo sapiens; conditions: Homo sapiens, NOS-1;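 further: growth inhibition of the human NOS-1 cell line, read out with a cell viability assay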
Description: SANGER: Inhibition of human NOS-1 cell growth in a cell viability assay.

[42] = system: ES7; assay type: functional, cell-based, Homo sapiens; conditions: Homo sapiens, ES7;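 further: growth inhibition of cultured human ES7 cells, read out as cell viability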
Description: SANGER: Inhibition of human ES7 cell growth in a cell viability assay.

[43] = system: DMS-114; assay type: functional, cell-based, Homo sapiens; conditions: Homo sapiens, DMS-114
[44] = system: CW-2; assay type: functional, cell-based, Homo sapiens; conditions: Homo sapiens, CW-2;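 further: growth inhibition of CW-2 cells, read out by a cell viability assay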
Description: SANGER: Inhibition of human CW-2 cell growth in a cell viability assay.

[45] = system: MZ1-PC; assay type: functional, cell-based, Homo sapiens; conditions: Homo sapiens, MZ1-PC;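 further: cell viability assay measuring growth inhibition of human MZ1-PC cells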
Description: SANGER: Inhibition of human MZ1-PC cell growth in a cell viability assay.

[46] = system: NCI-H1155; assay type: functional, cell-based, Homo sapiens; conditions: Homo sapiens, NCI-H1155;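 further: cell growth inhibition measured by a viability assay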
Description: SANGER: Inhibition of human NCI-H1155 cell growth in a cell viability assay.

[47] = system: GI-1; assay type: functional, cell-based, Homo sapiens; conditions: Homo sapiens, GI-1;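 further: growth inhibition of human GI-1 cells, measured with a cell viability readout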
Description: SANGER: Inhibition of human GI-1 cell growth in a cell viability assay.

[48] = system: NMC-G1; assay type: functional, cell-based, Homo sapiens; conditions: Homo sapiens, NMC-G1;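 further: growth inhibition of the NMC-G1 cell line, measured with a cell viability read-out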
Description: SANGER: Inhibition of human NMC-G1 cell growth in a cell viability assay.

[49] = system: SBC-1; assay type: functional, cell-based, Homo sapiens; conditions: Homo sapiens, SBC-1;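 further: cell viability assay measuring growth inhibition of the SBC-1 cell line, IC50 being the concentration that halves growth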
Description: SANGER: Inhibition of human SBC-1 cell growth in a cell viability assay.

[50] = system: DB; assay type: functional, cell-based, Homo sapiens; conditions: Homo sapiens, DB
Description: SANGER: Inhibition of human DB cell growth in a cell viability assay.

`C/C(=C\c1csc(C)n1)[C@@H]1C[C@@H]2O[C@]2(C)CCC[C@H](C)[C@H](O)[C@@H](C)C(=O)C(C)(C)[C@@H](O)CC(=O)O1` [PATUPILONE] was tested, and the IC50 [1] was 0.856 nM, the IC50 [2] was 0.997 nM and the IC50 [3] was 23.3 nM. For the same compound, the IC50 [4] was greater than 32 nM, the IC50 [5] was 3.91 nM and the IC50 [6] was greater than 32 nM. It also gave an IC50 [7] greater than 32 nM, an IC50 [8] greater than 32 nM and an IC50 [9] of 29.7 nM. It also gave an IC50 [10] of 8.37 nM, an IC50 [11] greater than 32 nM and an IC50 [12] of 23 nM. The IC50 [13] was 4.1 nM, the IC50 [14] was greater than 32 nM and the IC50 [15] was 0.88 nM. It also gave an IC50 [16] of 1.57 nM, an IC50 [17] of 13.5 nM and an IC50 [18] greater than 32 nM. For the same compound, the IC50 [19] was 3.41 nM, the IC50 [20] was 0.891 nM and the IC50 [21] was 10 nM. For the same compound, the IC50 [22] was 8.31 nM, the IC50 [23] was 8.07 nM and the IC50 [24] was 20.5 nM. For the same compound, the IC50 [25] was greater than 32 nM, the IC50 [26] was 0.719 nM and the IC50 [27] was 17.6 nM. It also gave an IC50 [28] greater than 32 nM, an IC50 [29] of 17.5 nM and an IC50 [30] of 0.718 nM. For the same compound, the IC50 [31] was greater than 32 nM, the IC50 [32] was 5.59 nM and the IC50 [33] was 1.9 nM. It also gave an IC50 [34] greater than 32 nM, an IC50 [35] of 2.46 nM and an IC50 [36] of 4.66 nM. For the same compound, the IC50 [37] was 3.07 nM, the IC50 [38] was greater than 32 nM and the IC50 [39] was 9.62 nM. For the same compound, the IC50 [40] was 2.15 nM, the IC50 [41] was 2.72 nM and the IC50 [42] was 5.87 nM. For the same compound, the IC50 [43] was greater than 32 nM, the IC50 [44] was greater than 32 nM and the IC50 [45] was 0.607 nM. It also gave an IC50 [46] greater than 32 nM, an IC50 [47] of 2.43 nM and an IC50 [48] of 1.75 nM. For the same compound, the IC50 [49] was greater than 32 nM and the IC50 [50] was 7.11 nM.
Compound `COc1cc(N2CCC(N3CCN(C)CC3)CC2)ccc1Nc1ncc(Cl)c(Nc2ccccc2S(=O)(=O)C(C)C)n1` [TAE-684] has an IC50 [1] of 1570 nM, an IC50 [2] greater than 2000 nM and an IC50 [3] greater than 2000 nM. For the same compound, the IC50 [4] was greater than 2000 nM, the IC50 [5] was 1390 nM and the IC50 [6] was 1850 nM. The IC50 [7] was greater than 2000 nM, the IC50 [8] was greater than 2000 nM and the IC50 [9] was greater than 2000 nM. The IC50 [10] was 312 nM, the IC50 [11] was 767 nM and the IC50 [12] was greater than 2000 nM. The IC50 [13] was greater than 2000 nM, the IC50 [14] was greater than 2000 nM and the IC50 [15] was greater than 2000 nM. It also gave an IC50 [16] of 1110 nM, an IC50 [17] of 859 nM and an IC50 [18] greater than 2000 nM. The IC50 [19] was 876 nM, the IC50 [20] was greater than 2000 nM and the IC50 [21] was 235 nM. The IC50 [22] was greater than 2000 nM, the IC50 [23] was 318 nM and the IC50 [24] was greater than 2000 nM. The IC50 [25] was greater than 2000 nM, the IC50 [26] was 715 nM and the IC50 [27] was greater than 2000 nM. It also gave an IC50 [28] greater than 2000 nM, an IC50 [29] greater than 2000 nM and an IC50 [30] of 334 nM. The IC50 [31] was greater than 2000 nM, the IC50 [32] was 1060 nM and the IC50 [33] was 103 nM. It also gave an IC50 [34] greater than 2000 nM, an IC50 [35] of 490 nM and an IC50 [36] of 840 nM. The IC50 [37] was 483 nM, the IC50 [38] was 988 nM and the IC50 [39] was greater than 2000 nM. The IC50 [40] was greater than 2000 nM, the IC50 [41] was 103 nM and the IC50 [42] was greater than 2000 nM. The IC50 [43] was greater than 2000 nM, the IC50 [44] was greater than 2000 nM and the IC50 [45] was 178 nM. The IC50 [46] was greater than 2000 nM, the IC50 [47] was 1100 nM and the IC50 [48] was 832 nM. The IC50 [49] was greater than 2000 nM and the IC50 [50] was greater than 2000 nM.
